# Assay results as given in patent publication US20030180375A1, “Use of xenon for treating neurointoxications” (AGA AB, priority 1999, published 2003).
# Legend:
# PC12 cells [1] = test: Dopamine release of differentiated PC12 cells in a hypoxic situation (helium instead of oxygen), Example 1; assay type: cell-based, rats
# Description: An in vitro experiment with PC12 cells is concerned. These PC12 cells are dependants of a pheochromocytoma of rats. […] PC12 cells can be reproduced continuously in vitro. Following the addition of “nerve growth factor”, they start differentiating and become neurons which in many respects have the property of in vivo neurons, particularly the properties which relate to the neurotransmitter release. PC12 cells are acknowledged as neuronal model.
# PC12 cells differentiated in such a manner when exposed to a hypoxic situation, release dopamine. […] If the cells are treated under these hypoxic conditions with xenon in defined concentrations over the same period of time, the neurotransmitter release will be dropped. […] If a hypoxic situation is triggered by a dose of helium instead of oxygen, the curve of the dopamine concentration will result as shown in the curve produced from the solid triangles. A maximum dopamine concentration is shown in this case after about 40 minutes. […] In the above-described experiment, the gases used were given to the cells by mixing them with the growth buffer for the cells. In this case, saturated gas buffer solutions are involved.
# PC12 cells [2] = test: Dopamine release of differentiated PC12 cells under stress conditions (N2 hypoxia, glutamate), Example 2; assay type: cell-based, rats; design: dopamine release: dose or concentration left out as unconfirmed; conditions: FIG. 2
# Description: The differentiated PC12 cells described in Example 1 were distributed to various vessels and exposed to differing conditions. These conditions are defined as follows: […]
# The dopamine release may even be increased if, in addition to the nitrogen atmosphere, glutamate, which represents a neurotransmitter and has a neurotoxic effect in greater doses, was given as well (group: Glu+N2).
# Thus, the addition of glutamate to the cells effects an increased dopamine release, particularly when the cells are kept under hypoxic conditions.
smiles,measurement,setting,value
[Xe] [xenon],reversibility of the xenon effect,"PC12 cells [1]; after the xenon is washed out, cells cannot be distinguished from untreated cells",fully reversible
same,dopamine concentration over the time course,"PC12 cells [1]; xenon given in a hypoxic situation, saturated gas buffer solution, compared with non-stressed controls, FIG. 1A",virtually no longer differ from the control cell population
same,relative dopamine concentration (dopamine release),"PC12 cells [1]; xenon in a hypoxic situation, compared with control cells, FIG. 1B",reduced down to values of the control cells
same,dopamine release compared to the corresponding (glutamate+N2) experiment,PC12 cells [2]; Glu+Xe: 10 M glutamate for 30 minutes of incubation in xenon,reduced by two-thirds
same,dopamine release,PC12 cells [2]; Glu+Xe: glutamate for 30 minutes of incubation in xenon,slightly increased dopamine release
same,unintentional neurotransmitter release,"PC12 cells [2]; simultaneous supply of xenon, glutamate and/or hypoxic conditions",reduced many times over
